# Test results: ChEMBL document CHEMBL1201862, “PubChem BioAssay data set” (2004)
# Active and inactive are the calls of the source.
# Tests used:
# Escherichia coli [1] = experiment: microbe, parasite or virus in culture
# [2] = target: Apoptotic protease-activating factor 1 (Homo sapiens, UniProt O14727); experiment: SAR analysis of small molecule Activators of Apaf-1 in a Fluorescent assay.; assay type: functional; details: read-out: EC50_Mean;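 note: caspase-3 cleavage of fluorogenic Rh110 DEVD substrate downstream of apoptosome activation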
# [3] = target: Sentrin-specific protease 6 (Homo sapiens, UniProt Q9GZR1); assay type: functional;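 note: Luminescence-based dose-response confirmatory assay of SENP6 inhibition, following up an ultra-high-throughput screen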
# Caspase-3 = target: T1, Caspase-3 (Homo sapiens, UniProt P42574); assay type: functional;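 note: Dose-response selectivity test against caspase-3 for candidate inhibitors of sentrin-specific proteases (SENPs)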
# T1 sequence (P42574 whole entry): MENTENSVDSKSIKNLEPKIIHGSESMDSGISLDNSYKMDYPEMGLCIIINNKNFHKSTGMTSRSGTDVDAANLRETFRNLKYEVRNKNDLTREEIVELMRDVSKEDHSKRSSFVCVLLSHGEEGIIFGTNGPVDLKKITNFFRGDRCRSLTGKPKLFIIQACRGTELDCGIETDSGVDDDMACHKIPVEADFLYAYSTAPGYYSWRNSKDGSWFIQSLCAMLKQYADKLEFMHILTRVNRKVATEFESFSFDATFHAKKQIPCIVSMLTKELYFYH
# [4] = target: Sentrin-specific protease 7 (Homo sapiens, UniProt Q9BQF6); assay type: functional;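 note: Luminescence-based dose-response confirmation of ultra-high-throughput screening hits, measuring inhibition of SENP7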
# [5] = target: T2, Sentrin-specific protease 8 (Homo sapiens, UniProt Q96LD8); assay type: functional;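 note: luminescence read-out of SENP8 inhibition, dose-response confirmation following an ultra-high-throughput screen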
# T2 sequence (Q96LD8 whole entry): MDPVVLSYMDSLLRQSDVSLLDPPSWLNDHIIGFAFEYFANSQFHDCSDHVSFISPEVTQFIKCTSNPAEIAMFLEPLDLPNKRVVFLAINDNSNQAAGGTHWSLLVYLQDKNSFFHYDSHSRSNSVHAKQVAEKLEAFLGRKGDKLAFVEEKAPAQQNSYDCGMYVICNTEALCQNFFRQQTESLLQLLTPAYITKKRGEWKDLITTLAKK
# [6] = target: Ras and Rab interactor 1/Tyrosine-protein kinase ABL1 (Homo sapiens, UniProt P00519+Q13671); assay type: functional;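 note: biochemical TR-FRET dose-response test measuring inhibition of binding between Rin1 and Abl proteins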
# [7] = target: Potassium voltage-gated channel subfamily KQT member 2 (Rattus norvegicus, UniProt O88943); experiment: blockers of KCNQ2 channel current – cell-based, automated electrophysiology, set II, rat KCNQ2, dose response (AID 588637); assay type: functional
# [8] = blockers of HIV-1 envelope-mediated cell-cell fusion – cherry-pick, dose response (AID 652057); assay type: functional, cell-based
# Phospholipase A2 = Phospholipase A2 (Homo sapiens, UniProt P04054); assay type: functional;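 note: confirmatory dose-response counterscreen on phospholipase A2, testing hits that came from an ultra-high-throughput screen for ATG4B inhibitors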
# [9] = inhibition of Env-driven cell fusion – HIV entry, plate reader, dry powder, dose response (AID 687023); assay type: functional, cell-based
# [10] = viability loss in CEM21 cells – cell-based, plate reader, dry powder, cytotoxicity control, dose response (AID 687026); assay type: functional
# Cysteine protease ATG4B = Cysteine protease ATG4B (Homo sapiens, UniProt Q9Y4P1); assay type: functional;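 note: Fluorescence-based dose-response confirmation assay measuring inhibition of ATG4B activity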
# [11] = blockers of HIV-1 ZM109 envelope-driven cell-cell fusion – HeLa effector, CEM target cells, luciferase, cherry-pick, dose response (AID 652058); assay type: functional, cell-based;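 note: luciferase signal from HIV-1 Env mediated cell-cell fusion of effector and target cells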
# [12] = HIV-1 AD8 envelope cell-cell fusion blockers – cherry-pick, dose response (AID 652062); assay type: functional, cell-based;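 note: luciferase signal from cell-cell fusion driven by HIV-1 clade B AD8 Env; potency is for inhibitors of fusion seen as a drop in luminescence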
# [13] = Luminescence Cell-Based Dose Retest to Confirm Inhibitors of Cancer Stem Cells. [Related pubchem assays (depositor defined):AID2717, AID2721]; assay type: functional; details: Homo sapiens
# Mu-type opioid receptor = Mu-type opioid receptor (Homo sapiens, UniProt P35372); experiment: Counterscreen for agonists of heterodimerization of the mu 1 (OPRM1) and delta 1 (OPRD1) opioid receptors: Luminescence-based cell-based high throughput dose response assay to identify agonists of OPRM1 homodimerization.; assay type: functional;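 note: U2OS cells expressing OPRM1 and beta-arrestin as split beta-galactosidase partners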
# [14] = target: DNA (cytosine-5)-methyltransferase 1 (Homo sapiens, UniProt P26358); experiment: inhibition of DNA methylation by DNMT1 – biochemical, fluorescent molecular beacon, confirmation (AID 602386); assay type: functional
# [15] = target: Delta-type opioid receptor (Homo sapiens, UniProt P41143); experiment: Counterscreen for agonists of heterodimerization of the mu 1 (OPRM1) and delta 1 (OPRD1) opioid receptors: Luminescence-based cell-based high throughput dose response assay to identify agonists of OPRD1 homodimerization. [Related pubchem assays (depositor defined):AID504326, AID504355, AID504692, AID504904, AID504905]; assay type: functional
# [16] = target: T3, Corticotropin-releasing factor receptor 2/Corticotropin-releasing factor-binding protein (Homo sapiens, UniProt P24387+Q13324); experiment: activators of CRF receptor 2 with binding protein – uHTS hits, confirmation (AID 602473); assay type: functional; details: read-out: EC50_Mean
# T3 sequence (Q13324 whole entry): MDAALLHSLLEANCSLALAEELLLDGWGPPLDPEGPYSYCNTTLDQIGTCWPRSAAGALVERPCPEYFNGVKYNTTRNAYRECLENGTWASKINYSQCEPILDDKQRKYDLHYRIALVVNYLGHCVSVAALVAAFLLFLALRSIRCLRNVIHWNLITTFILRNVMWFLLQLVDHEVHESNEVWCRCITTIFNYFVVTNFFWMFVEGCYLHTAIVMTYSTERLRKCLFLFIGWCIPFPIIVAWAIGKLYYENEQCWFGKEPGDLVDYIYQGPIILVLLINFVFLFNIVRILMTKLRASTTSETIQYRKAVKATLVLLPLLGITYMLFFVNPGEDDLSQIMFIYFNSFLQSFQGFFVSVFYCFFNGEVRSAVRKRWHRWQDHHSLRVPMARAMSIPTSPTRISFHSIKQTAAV
# T3 sequence (P24387 whole entry): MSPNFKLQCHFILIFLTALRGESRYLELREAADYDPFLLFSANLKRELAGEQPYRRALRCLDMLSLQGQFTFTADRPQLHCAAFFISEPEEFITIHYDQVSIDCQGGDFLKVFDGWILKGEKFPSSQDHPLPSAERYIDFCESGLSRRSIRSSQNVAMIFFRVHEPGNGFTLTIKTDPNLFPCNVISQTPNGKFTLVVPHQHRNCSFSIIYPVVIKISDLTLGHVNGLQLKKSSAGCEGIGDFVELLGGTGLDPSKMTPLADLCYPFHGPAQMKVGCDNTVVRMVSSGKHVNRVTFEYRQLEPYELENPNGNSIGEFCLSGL
# [17] = target: 5-hydroxytryptamine receptor 5A (Homo sapiens, UniProt P47898); experiment: Counterscreen for agonists of OPRM1-OPRD1 heterodimerization: luminescence-based cell-based high throughput dose response assay to identify agonists of 5-hydroxytryptamine (serotonin) 5A receptor (HTR5A). [Related pubchem assays (depositor defined):AID504326, AID504355, AID504692, AID504904, AID504905]; assay type: functional
# [18] = Luminescence Cell-Based Dose Confirmation HTS to Identify Activators of 5'UTR Stem-Loop Driven Alpha-Synuclein mRNA Translation in H4 Neuroglioblastoma Cells. [Related pubchem assays: 1829 (Project Summary), 1814 (Primary HTS)]; assay type: functional
# H4 = experiment: Luminescence Cell-Based Dose Response HTS to Identify Activators of 5'UTR Stem-Loop Driven Prion Protein mRNA Translation in H4 Neuroglioblastoma Cells. [Related pubchem assays: 1829 (Project Summary), 1814 (Primary HTS)]; assay type: functional; details: Homo sapiens
# [19] = Luminescence Cell-Based Dose Response HTS to Identify Activators of Luciferase Translation or Activity in H4 […] Cells. [Related pubchem assays: 1829 (Project Summary), 1814 (Primary HTS)]; assay type: functional
# Keap1/Nrf2 = Keap1/Nrf2 (Homo sapiens, UniProt Q14145); experiment: disruptors of Keap1 binding to Nrf2 peptide – biochemical, fluorescence polarization, cherry-picked samples, dose response (AID 588683)
# [20] = viability of HCT116 lacking mutant beta-catenin – cell-based, human colon tumor, dose response (AID 1045); assay type: functional;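 note: HCT116 colon tumor cells with beta catenin knocked out; cells exposed to compound for 60 hours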
# [21] = viability of PTEN-deleted HCT116 cells – cell-based, HCT116 PTEN knockout, dose response (AID 1047); assay type: functional;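 note: HCT116 colon tumor cells with PTEN knocked out; cells exposed to compound for 60 hours before readout; potency for loss of cell viability measured by luminescence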
# [22] = target: 26S proteasome non-ATPase regulatory subunit 14 (Homo sapiens, UniProt O00487); experiment: inhibition of proteasome subunit RPN11 – biochemical, fluorescence polarization, uHTS hits, confirmation (AID 602368); assay type: functional
# [23] = target: 72 kDa type IV collagenase (Homo sapiens, UniProt P08253); experiment: Dose Response validation of uHTS RPN11 inhibitor hits using a MMP-2 Fluorescence assay.; assay type: functional
# Prothrombin = Prothrombin (Bos taurus, UniProt P00735); experiment: thrombin protease inhibitors – biochemical, fluorescence polarization, uHTS hits, dose response (AID 602369); assay type: functional
# [24] = target: T4, High affinity choline transporter 1 (Homo sapiens, UniProt Q9GZV3); experiment: human choline transporter blockers, potency – cell-based, 5-point CRC, membrane potential dye, dose response (AID 504840); assay type: functional
# T4 sequence (Q9GZV3 whole entry): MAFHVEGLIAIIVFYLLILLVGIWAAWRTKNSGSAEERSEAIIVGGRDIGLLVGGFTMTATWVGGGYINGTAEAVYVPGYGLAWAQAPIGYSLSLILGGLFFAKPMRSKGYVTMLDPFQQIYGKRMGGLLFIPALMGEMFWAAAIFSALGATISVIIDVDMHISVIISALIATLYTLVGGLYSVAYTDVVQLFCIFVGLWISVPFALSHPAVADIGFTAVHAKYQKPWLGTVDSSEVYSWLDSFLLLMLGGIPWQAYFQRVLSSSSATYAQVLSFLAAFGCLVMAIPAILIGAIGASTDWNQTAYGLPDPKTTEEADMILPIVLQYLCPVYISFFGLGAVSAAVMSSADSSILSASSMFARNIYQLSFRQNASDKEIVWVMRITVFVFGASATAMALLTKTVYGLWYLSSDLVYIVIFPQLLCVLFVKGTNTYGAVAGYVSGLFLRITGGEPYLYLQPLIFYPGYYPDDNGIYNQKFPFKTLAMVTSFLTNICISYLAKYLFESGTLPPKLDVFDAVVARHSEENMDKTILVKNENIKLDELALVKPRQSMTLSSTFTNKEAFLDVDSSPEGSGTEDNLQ
# [25] = target: T4, High affinity choline transporter 1; experiment: human choline transporter blockers, potency – cell-based, 10-point CRC, membrane potential dye, dose response (AID 588401); assay type: functional;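 note: membrane potential dye fluorescence of choline-evoked depolarization via CHT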
# Escherichia coli [26] = experiment: microbe, parasite or virus in culture; remark: listed apart in the source
# Sequence of Phospholipase A2 (P04054 whole entry, the tested form may be a part): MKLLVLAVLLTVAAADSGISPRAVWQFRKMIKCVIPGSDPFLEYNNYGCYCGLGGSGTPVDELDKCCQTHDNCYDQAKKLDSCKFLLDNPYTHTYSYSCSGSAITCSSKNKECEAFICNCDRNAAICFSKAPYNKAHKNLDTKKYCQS
# Sequence of Sentrin-specific protease 6 (Q9GZR1 whole entry): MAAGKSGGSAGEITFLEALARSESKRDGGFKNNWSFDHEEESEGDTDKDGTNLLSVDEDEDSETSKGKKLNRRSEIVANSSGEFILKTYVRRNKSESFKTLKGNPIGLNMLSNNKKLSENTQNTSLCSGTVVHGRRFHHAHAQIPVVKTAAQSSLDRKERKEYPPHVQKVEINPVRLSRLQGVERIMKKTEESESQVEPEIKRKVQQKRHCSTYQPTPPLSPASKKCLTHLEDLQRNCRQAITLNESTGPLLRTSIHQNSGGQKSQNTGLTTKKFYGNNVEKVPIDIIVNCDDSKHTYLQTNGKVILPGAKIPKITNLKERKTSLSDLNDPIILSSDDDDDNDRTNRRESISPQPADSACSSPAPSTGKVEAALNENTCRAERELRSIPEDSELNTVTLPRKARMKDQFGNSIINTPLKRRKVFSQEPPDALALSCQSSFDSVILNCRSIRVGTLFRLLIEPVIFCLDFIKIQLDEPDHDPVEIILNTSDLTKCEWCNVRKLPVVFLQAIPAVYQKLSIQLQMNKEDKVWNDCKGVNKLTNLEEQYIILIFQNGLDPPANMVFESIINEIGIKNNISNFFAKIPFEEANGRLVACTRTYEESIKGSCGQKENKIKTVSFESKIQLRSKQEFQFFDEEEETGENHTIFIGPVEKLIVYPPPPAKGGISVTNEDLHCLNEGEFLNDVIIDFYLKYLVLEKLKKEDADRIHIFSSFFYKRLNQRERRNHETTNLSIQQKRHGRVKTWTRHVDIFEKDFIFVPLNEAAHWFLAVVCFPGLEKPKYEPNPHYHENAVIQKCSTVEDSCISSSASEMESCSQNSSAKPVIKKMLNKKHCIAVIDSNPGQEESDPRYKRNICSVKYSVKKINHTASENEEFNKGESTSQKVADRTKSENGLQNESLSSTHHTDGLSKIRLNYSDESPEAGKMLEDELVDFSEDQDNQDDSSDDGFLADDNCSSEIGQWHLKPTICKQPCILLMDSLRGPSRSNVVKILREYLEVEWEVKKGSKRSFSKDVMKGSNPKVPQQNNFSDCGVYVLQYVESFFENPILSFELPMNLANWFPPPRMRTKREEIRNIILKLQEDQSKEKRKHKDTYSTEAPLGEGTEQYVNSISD
# Sequence of Cysteine protease ATG4B (Q9Y4P1 whole entry, the tested form may be a part): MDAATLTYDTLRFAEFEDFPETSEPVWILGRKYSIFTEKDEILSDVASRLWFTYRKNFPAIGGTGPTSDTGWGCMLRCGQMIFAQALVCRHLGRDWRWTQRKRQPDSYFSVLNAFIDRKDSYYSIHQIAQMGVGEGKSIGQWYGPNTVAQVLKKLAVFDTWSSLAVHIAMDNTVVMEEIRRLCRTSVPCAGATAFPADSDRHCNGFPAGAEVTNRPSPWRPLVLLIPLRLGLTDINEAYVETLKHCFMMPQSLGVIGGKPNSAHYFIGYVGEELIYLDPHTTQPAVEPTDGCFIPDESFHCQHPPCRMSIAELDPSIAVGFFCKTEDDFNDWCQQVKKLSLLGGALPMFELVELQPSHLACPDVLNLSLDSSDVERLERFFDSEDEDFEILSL
# Sequence of Mu-type opioid receptor (P35372 whole entry): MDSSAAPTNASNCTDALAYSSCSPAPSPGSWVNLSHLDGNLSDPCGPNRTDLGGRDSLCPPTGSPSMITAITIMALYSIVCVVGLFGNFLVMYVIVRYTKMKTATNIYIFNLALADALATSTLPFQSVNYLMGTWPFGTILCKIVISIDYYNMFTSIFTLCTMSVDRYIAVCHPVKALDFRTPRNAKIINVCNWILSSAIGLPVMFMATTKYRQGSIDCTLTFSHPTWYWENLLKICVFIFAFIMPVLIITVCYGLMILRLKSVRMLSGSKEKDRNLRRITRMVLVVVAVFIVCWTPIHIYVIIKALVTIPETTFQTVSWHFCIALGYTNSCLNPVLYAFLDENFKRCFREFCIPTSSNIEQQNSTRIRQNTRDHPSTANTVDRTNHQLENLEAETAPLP
# Sequence of 72 kDa type IV collagenase (P08253 whole entry): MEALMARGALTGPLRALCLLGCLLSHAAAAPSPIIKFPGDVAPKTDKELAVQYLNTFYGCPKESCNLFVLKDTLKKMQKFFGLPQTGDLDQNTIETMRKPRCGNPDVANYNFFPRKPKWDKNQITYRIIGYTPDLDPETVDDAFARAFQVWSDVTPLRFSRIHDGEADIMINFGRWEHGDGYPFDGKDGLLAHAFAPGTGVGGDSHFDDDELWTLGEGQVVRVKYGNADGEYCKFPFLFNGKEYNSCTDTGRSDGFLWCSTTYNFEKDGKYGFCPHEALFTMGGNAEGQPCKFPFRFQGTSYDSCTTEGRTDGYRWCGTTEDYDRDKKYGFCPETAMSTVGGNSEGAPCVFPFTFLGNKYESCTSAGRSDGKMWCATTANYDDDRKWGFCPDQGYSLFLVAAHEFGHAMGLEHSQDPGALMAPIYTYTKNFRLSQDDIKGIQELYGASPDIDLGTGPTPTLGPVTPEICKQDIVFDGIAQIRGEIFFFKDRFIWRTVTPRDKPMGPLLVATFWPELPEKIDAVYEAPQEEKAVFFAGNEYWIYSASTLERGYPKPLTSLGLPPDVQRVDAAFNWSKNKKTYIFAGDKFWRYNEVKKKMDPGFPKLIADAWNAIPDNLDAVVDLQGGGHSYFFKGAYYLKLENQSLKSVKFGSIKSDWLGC
# Sequence of 26S proteasome non-ATPase regulatory subunit 14 (O00487 whole entry): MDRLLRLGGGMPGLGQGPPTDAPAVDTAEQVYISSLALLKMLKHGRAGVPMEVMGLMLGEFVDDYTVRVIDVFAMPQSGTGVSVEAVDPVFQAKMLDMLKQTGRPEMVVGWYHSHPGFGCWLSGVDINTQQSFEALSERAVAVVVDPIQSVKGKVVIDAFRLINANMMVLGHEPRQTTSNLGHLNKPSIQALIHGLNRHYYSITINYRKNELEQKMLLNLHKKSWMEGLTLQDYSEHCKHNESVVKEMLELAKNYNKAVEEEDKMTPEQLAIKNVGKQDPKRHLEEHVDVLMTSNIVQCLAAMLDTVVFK
# Sequence of 5-hydroxytryptamine receptor 5A (P47898 whole entry): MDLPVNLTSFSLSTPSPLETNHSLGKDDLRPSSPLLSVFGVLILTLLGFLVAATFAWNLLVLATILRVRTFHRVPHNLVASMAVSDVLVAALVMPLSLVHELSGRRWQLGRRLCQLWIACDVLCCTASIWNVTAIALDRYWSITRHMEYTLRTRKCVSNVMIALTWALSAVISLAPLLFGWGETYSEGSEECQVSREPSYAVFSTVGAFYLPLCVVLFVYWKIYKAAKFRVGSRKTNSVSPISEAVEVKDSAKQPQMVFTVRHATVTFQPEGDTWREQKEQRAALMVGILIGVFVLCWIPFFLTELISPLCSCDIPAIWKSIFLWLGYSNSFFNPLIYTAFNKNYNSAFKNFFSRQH
# Sequence of Sentrin-specific protease 7 (Q9BQF6 whole entry): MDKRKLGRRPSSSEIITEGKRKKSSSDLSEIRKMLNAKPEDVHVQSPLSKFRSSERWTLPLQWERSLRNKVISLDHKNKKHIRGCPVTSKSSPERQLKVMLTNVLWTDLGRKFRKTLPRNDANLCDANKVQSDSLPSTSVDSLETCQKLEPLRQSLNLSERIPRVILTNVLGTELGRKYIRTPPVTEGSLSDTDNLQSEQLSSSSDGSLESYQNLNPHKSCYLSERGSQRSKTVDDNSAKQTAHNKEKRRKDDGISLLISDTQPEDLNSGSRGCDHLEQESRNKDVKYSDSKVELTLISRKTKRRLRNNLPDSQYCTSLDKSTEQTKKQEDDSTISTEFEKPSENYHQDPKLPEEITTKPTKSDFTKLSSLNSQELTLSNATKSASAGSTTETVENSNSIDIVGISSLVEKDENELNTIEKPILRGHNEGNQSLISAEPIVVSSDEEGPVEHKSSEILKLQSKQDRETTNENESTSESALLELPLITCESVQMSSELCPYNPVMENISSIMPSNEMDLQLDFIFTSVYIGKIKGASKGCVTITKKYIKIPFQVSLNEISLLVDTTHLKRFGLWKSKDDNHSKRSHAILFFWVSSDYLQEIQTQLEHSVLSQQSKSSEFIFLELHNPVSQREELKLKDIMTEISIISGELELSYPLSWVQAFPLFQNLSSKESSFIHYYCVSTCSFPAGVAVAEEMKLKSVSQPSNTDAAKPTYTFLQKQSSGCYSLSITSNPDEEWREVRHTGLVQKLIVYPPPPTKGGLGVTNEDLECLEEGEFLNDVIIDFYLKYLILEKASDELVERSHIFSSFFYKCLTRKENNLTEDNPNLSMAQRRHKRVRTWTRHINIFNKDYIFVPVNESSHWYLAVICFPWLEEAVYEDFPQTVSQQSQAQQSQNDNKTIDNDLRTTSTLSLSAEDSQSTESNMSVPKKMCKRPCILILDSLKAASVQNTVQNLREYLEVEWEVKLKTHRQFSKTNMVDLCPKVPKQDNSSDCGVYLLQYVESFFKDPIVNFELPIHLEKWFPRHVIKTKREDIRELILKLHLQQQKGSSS
# Sequence of Delta-type opioid receptor (P41143 whole entry): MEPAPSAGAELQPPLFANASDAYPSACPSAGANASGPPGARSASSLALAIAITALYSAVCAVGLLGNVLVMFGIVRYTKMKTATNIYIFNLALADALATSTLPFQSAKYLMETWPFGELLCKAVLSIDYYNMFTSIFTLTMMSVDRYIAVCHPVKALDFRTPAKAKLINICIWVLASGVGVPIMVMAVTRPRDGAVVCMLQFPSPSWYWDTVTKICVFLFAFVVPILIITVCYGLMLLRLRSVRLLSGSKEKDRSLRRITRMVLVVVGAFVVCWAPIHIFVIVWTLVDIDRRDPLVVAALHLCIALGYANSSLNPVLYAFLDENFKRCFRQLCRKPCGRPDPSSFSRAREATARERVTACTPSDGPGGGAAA
structure (smiles),measurement,setting,value
CN(C/C=C/c1ccccc1[N+](=O)[O-])Cc1ccccc1,AC50,Escherichia coli [1],42.7 µM (active)
CCCCCCC1CC(Cc2c(C)[nH]c3ccccc23)C(=O)O1 (centres undefined),EC50,[2],> 100 µM (inactive)
Cc1nnsc1NC(=O)OCc1ccccc1Cl,IC50,[3],45.6 µM (active)
same,IC50,Caspase-3,21.4 µM (active)
same,IC50,[4],13 µM (active)
same,IC50,[5],52.7 µM (active)
Cc1ccccc1-c1nnc(SCc2ccccc2F)o1,IC50,[3],21.9 µM (active)
same,IC50,Caspase-3,29.1 µM (active)
same,IC50,[4],6.14 µM (active)
same,IC50,[5],45.1 µM (active)
CCOC(=O)CCCCCC(=O)Nc1ccc2c(c1)CC(=O)N([C@H](C)CO)C[C@@H](C)[C@H](CN(C)Cc1ccc3c(c1)OCO3)O2,IC50,[6],30.8 µM (inactive)
CN(C)S(=O)(=O)c1ccc(N2CCCC2)c(C(=O)NNC(=O)c2ccc(Br)cc2)c1,IC50,[7],3.72 µM (active)
CCOc1ccc(C(=O)C2CCN(CC(=O)Nc3ccccc3N3CCOCC3)CC2)cc1,AC50,[8],3.34 µM (active)
same,IC50,Phospholipase A2,11.9 µM (active)
same,AC50,[9],10.4 µM (active)
same,AC50,[10],> 70 µM (inactive)
same,IC50,Cysteine protease ATG4B,13.2 µM (active)
same,AC50,[11],10.8 µM (active)
same,AC50,[12],0.94 µM (active)
COc1ccc(NS(=O)(=O)c2ccc(O)c(NC(=O)c3cc4c(C)nn(-c5ccc(F)cc5)c4s3)c2)cc1,AC50,[13],2.11 µM (active)
same,EC50,Mu-type opioid receptor,> 92.5 µM (inactive)
same,IC50,[14],6.92 µM (active)
same,EC50,[15],> 92.5 µM (inactive)
same,EC50,[16],> 53 µM (inactive)
same,EC50,[17],> 92.5 µM (inactive)
O=S(=O)([N-]c1nc2ccccc2nc1-[n+]1ccc(-c2ccncc2)cc1)c1ccccc1,EC50,[18],55 µM (active)
same,EC50,H4,> 120 µM (not active)
same,EC50,[19],9.78 µM (active)
same,AC50,Keap1/Nrf2,31.5 µM (active)
same,EC50,[16],> 53 µM (inactive)
COc1ccc2[nH]c3c(=O)n(/N=C/[C@H]4C(C)C=C(C)CC4C)c(=O)[nH]c3c2c1 (some centres undefined),EC50,[20],35.4 µM (active)
same,EC50,[21],30.5 µM (active)
same,EC50,Mu-type opioid receptor,> 92.5 µM (inactive)
same,EC50,[15],> 92.5 µM (inactive)
same,EC50,[17],> 92.5 µM (inactive)
COC(=O)c1sc2nc(CSc3ccc(Br)cc3)[nH]c(=O)c2c1C,IC50,[22],26.6 µM (active)
same,IC50,[23],> 100 µM (inactive)
same,IC50,Prothrombin,30 µM (active)
CCN(CC)CCCNC(=O)c1ccccc1NC(=O)C1=CSCCO1,IC50,[24],4.48 µM (active)
same,IC50,[25],3.57 µM (active)
CCN(CC)CCCNC(=O)c1cn(CC)c2ccc(S(=O)(=O)N3CCc4ccccc4C3)cc2c1=O,IC50,[24],4.17 µM (active)
same,IC50,[25],2.67 µM (active)
CCc1ccccc1NC(=O)CNC1CCCCC1.[O-][Cl+3]([O-])([O-])O,AC50,Escherichia coli [26],22.6 µM (active)
same,AC50,Escherichia coli [1],76.7 µM (active)
CN(C)CCCN/C=C1\C(=O)NC(=O)N(CCc2ccccc2)C1=O,IC50,[22],28.7 µM (active)
same,IC50,[23],> 100 µM (inactive)
same,IC50,Prothrombin,35.1 µM (active)
O=C(O)c1cc(N/N=C2/CC(c3ccccc3)Oc3ccccc32)ccc1Cl (centres undefined),IC50,Phospholipase A2,7.77 µM (active)
same,IC50,Cysteine protease ATG4B,7.53 µM (active)
